From ChEMBL document CHEMBL1201862, “PubChem BioAssay data set” (2004)
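Tested at 5 concentrations; 48 h exposure; 96-well plates; endpoints linearly interpolated, else capped at highest concentration. Here, GI50 denotes the concentration required for 50% inhibition of growth.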 The source made the active and inactive calls. No stated cut-off is given here; in the data, active = GI50 up to about 1.1 µM and inactive = higher.

Columns and labels:
Assay in all cases: inhibition of tumour cell growth, NCI panel, 48 h
786-0 = system: 786-0
A549 = system: A549
ACHN = system: ACHN
BT-549 = system: BT-549
CAKI-1 = system: CAKI-1
CCRF-CEM = system: CCRF-CEM
COLO 205 = system: COLO 205
DU-145 = system: DU-145
EKVX = system: EKVX
HCC 2998 = system: HCC 2998
HCT-116 = system: HCT-116
HCT-15 = system: HCT-15
HL-60 = system: HL-60
HOP-62 = system: HOP-62
HT-29 = system: HT-29
Hs-578T = system: Hs-578T
IGROV-1 = system: IGROV-1
K562 = system: K562
KM12 = system: KM12
LOX IMVI = system: LOX IMVI
M14 = system: M14
MCF7 = system: MCF7
MDA-MB-231 = system: MDA-MB-231
MDA-MB-435 = system: MDA-MB-435
MDA-N = system: MDA-N
MOLT-4 = system: MOLT-4
Malme-3M = system: Malme-3M
NCI-H226 = system: NCI-H226
NCI-H23 = system: NCI-H23
NCI/ADR-RES = system: NCI/ADR-RES
OVCAR-3 = system: OVCAR-3
OVCAR-4 = system: OVCAR-4
OVCAR-5 = system: OVCAR-5
OVCAR-8 = system: OVCAR-8
PC-3 = system: PC-3
RPMI-8226 = system: RPMI-8226
RXF 393 = system: RXF 393
SF-268 = system: SF-268
SF-295 = system: SF-295
SK-MEL-28 = system: SK-MEL-28
SK-MEL-2 = system: SK-MEL-2
SK-MEL-5 = system: SK-MEL-5
SK-OV-3 = system: SK-OV-3
SN12C = system: SN12C
SNB-19 = system: SNB-19
SNB-75 = system: SNB-75
SR = system: SR
SW-620 = system: SW-620
T47D = system: T47D
TK-10 = system: TK-10
U-251 = system: U-251
UACC-257 = system: UACC-257
UACC-62 = system: UACC-62
UO-31 = system: UO-31
HOP-92 = system: HOP-92
NCI-H460 = system: NCI-H460
NCI-H522 = system: NCI-H522
SF-539 = system: SF-539

## N#CC1(c2ccccc2)CCN(C2(c3ccccc3)CCCCC2)CC1
786-0
  GI50: 94.2 µM (inactive)
A549
  GI50: > 100 µM (inactive)
ACHN
  GI50: > 100 µM (inactive)
BT-549
  GI50: > 100 µM (inactive)
CAKI-1
  GI50: > 100 µM (inactive)
CCRF-CEM
  GI50: > 100 µM (inactive)
COLO 205
  GI50: > 100 µM (inactive)
DU-145
  GI50: > 100 µM (inactive)
EKVX
  GI50: > 100 µM (inactive)
HCC 2998
  GI50: > 100 µM (inactive)
HCT-116
  GI50: > 100 µM (inactive)
HCT-15
  GI50: > 100 µM
HL-60
  GI50: > 100 µM (inactive)
HOP-62
  GI50: > 100 µM (inactive)
HT-29
  GI50: > 100 µM (inactive)
Hs-578T
  GI50: 44 µM (inactive)
IGROV-1
  GI50: > 100 µM (inactive)
K562
  GI50: > 100 µM (inactive)
KM12
  GI50: > 100 µM (inactive)
LOX IMVI
  GI50: > 100 µM (inactive)
M14
  GI50: > 100 µM (inactive)
MCF7
  GI50: > 100 µM (inactive)
MDA-MB-231
  GI50: > 100 µM (inactive)
MDA-MB-435
  GI50: > 100 µM (inactive)
MDA-N
  GI50: > 100 µM (inactive)
MOLT-4
  GI50: > 100 µM (inactive)
Malme-3M
  GI50: 8.83 µM (inactive)
NCI-H226
  GI50: > 100 µM (inactive)
NCI-H23
  GI50: > 100 µM (inactive)
NCI/ADR-RES
  GI50: > 100 µM (inactive)
OVCAR-3
  GI50: > 100 µM (inactive)
OVCAR-4
  GI50: > 100 µM (inactive)
OVCAR-5
  GI50: > 100 µM (inactive)
OVCAR-8
  GI50: > 100 µM (inactive)
PC-3
  GI50: > 100 µM (inactive)
RPMI-8226
  GI50: > 100 µM (inactive)
RXF 393
  GI50: > 100 µM (inactive)
SF-268
  GI50: > 100 µM (inactive)
SF-295
  GI50: > 100 µM (inactive)
SK-MEL-28
  GI50: > 100 µM (inactive)
SK-MEL-2
  GI50: > 100 µM (inactive)
SK-MEL-5
  GI50: > 100 µM (inactive)
SK-OV-3
  GI50: > 100 µM (inactive)
SN12C
  GI50: > 100 µM (inactive)
SNB-19
  GI50: > 100 µM (inactive)
SNB-75
  GI50: > 100 µM (inactive)
SR
  GI50: > 100 µM (inactive)
SW-620
  GI50: > 100 µM (inactive)
T47D
  GI50: > 100 µM (inactive)
TK-10
  GI50: > 100 µM (inactive)
U-251
  GI50: > 100 µM (inactive)
UACC-257
  GI50: > 100 µM (inactive)
UACC-62
  GI50: > 100 µM (inactive)
UO-31
  GI50: > 100 µM (inactive)

## N#Cc1c(N)c2c(c(-c3ccccc3)c1-c1ccccc1)C(=O)N(N)C2=O
786-0
  GI50: 98.2 µM (inactive)
A549
  GI50: 94 µM (inactive)
ACHN
  GI50: > 100 µM (inactive)
BT-549
  GI50: > 100 µM (inactive)
CAKI-1
  GI50: 25.2 µM (inactive)
CCRF-CEM
  GI50: 42.7 µM (inactive)
COLO 205
  GI50: > 100 µM (inactive)
DU-145
  GI50: > 100 µM (inactive)
EKVX
  GI50: > 100 µM (inactive)
HCC 2998
  GI50: > 100 µM (inactive)
HCT-116
  GI50: > 100 µM (inactive)
HCT-15
  GI50: > 100 µM
HL-60
  GI50: 44 µM (inactive)
HOP-92
  GI50: 26.9 µM (inactive)
HT-29
  GI50: > 100 µM (inactive)
Hs-578T
  GI50: 60.1 µM (inactive)
IGROV-1
  GI50: 60 µM (inactive)
K562
  GI50: > 100 µM (inactive)
KM12
  GI50: > 100 µM (inactive)
M14
  GI50: > 100 µM (inactive)
MCF7
  GI50: > 100 µM (inactive)
MDA-MB-231
  GI50: > 100 µM (inactive)
MDA-MB-435
  GI50: > 100 µM (inactive)
MDA-N
  GI50: > 100 µM (inactive)
MOLT-4
  GI50: 70.6 µM (inactive)
Malme-3M
  GI50: > 100 µM (inactive)
NCI-H226
  GI50: > 100 µM (inactive)
NCI-H23
  GI50: > 100 µM (inactive)
NCI-H460
  GI50: > 100 µM (inactive)
NCI-H522
  GI50: 38.6 µM (inactive)
NCI/ADR-RES
  GI50: 56 µM (inactive)
OVCAR-3
  GI50: > 100 µM (inactive)
OVCAR-4
  GI50: > 100 µM (inactive)
OVCAR-5
  GI50: > 100 µM (inactive)
OVCAR-8
  GI50: > 100 µM (inactive)
PC-3
  GI50: 74.6 µM (inactive)
RPMI-8226
  GI50: 32.7 µM (inactive)
RXF 393
  GI50: 58.7 µM (inactive)
SF-268
  GI50: > 100 µM (inactive)
SF-295
  GI50: 89.3 µM (inactive)
SF-539
  GI50: 47.1 µM (inactive)
SK-MEL-28
  GI50: > 100 µM (inactive)
SK-MEL-2
  GI50: > 100 µM (inactive)
SK-MEL-5
  GI50: 87.9 µM (inactive)
SK-OV-3
  GI50: > 100 µM (inactive)
SN12C
  GI50: > 100 µM (inactive)
SNB-19
  GI50: > 100 µM (inactive)
SNB-75
  GI50: > 100 µM (inactive)
SR
  GI50: > 100 µM (inactive)
SW-620
  GI50: > 100 µM (inactive)
T47D
  GI50: 49.4 µM (inactive)
TK-10
  GI50: > 100 µM (inactive)
U-251
  GI50: > 100 µM (inactive)
UACC-257
  GI50: > 100 µM (inactive)
UACC-62
  GI50: > 100 µM (inactive)
UO-31
  GI50: 40.3 µM (inactive)
